Assay results reported in ChEMBL document CHEMBL5223107 (Bioorg Med Chem Lett, 2022).
The source made the active and inactive calls. The calls are words filed in the database; no cut-off is given here.

Legend:
[1] = molecular target: T1, Androgen receptor (Homo sapiens) (UniProt P10275); experiment: Inhibition of androgen receptor in human 22Rv1 cells assessed as reduction in DHT-induced AR expression level at 1 to 5 uM incubated for 24 hrs by western blot analysis; format: cell-based; settings: dose 1-5 µM
T1 sequence (whole entry): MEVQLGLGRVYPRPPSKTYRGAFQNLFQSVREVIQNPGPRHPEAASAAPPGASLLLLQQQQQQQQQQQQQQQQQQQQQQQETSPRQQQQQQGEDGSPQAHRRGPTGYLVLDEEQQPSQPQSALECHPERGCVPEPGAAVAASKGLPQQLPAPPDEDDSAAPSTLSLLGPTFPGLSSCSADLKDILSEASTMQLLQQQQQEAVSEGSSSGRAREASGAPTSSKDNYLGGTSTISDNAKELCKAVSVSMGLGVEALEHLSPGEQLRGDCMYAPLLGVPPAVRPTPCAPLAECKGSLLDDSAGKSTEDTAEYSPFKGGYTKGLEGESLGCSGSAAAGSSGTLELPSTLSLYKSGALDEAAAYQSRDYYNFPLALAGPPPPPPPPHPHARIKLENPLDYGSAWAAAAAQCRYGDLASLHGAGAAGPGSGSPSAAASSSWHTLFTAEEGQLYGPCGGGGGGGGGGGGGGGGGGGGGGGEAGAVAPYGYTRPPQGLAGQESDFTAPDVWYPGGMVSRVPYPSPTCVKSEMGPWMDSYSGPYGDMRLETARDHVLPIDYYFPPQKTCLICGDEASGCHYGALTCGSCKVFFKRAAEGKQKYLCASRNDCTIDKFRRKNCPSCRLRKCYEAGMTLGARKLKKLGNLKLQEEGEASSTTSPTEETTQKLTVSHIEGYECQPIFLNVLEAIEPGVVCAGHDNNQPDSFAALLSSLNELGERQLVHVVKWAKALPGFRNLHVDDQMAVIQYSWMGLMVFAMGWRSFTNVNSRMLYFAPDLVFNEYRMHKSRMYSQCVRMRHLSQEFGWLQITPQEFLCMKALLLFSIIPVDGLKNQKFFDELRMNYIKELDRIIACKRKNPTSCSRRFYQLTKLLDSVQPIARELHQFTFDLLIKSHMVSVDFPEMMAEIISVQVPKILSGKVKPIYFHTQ

[2] = molecular target: T1, Androgen receptor (Homo sapiens); experiment: Inhibition of androgen receptor in human 22Rv1 cells assessed as reduction in BCL-2 expression level at 1 to 10 uM incubated for 24 hrs by western blot analysis; format: cell-based; settings: dose 1-10 µM
[3] = tested on: LNCaP; experiment: Antiproliferative activity against human LNCaP cells assessed as cell growth inhibition incubated for 72 hrs by MTT assay; format: functional, cell-based
[4] = molecular target: T1, Androgen receptor (Homo sapiens); experiment: Inhibition of androgen receptor in human PC-3 cells assessed as inhibition of AR transcription activity by dual-luciferase reporter assays; format: cell-based
[5] = tested on: PC-3; experiment: Antiproliferative activity against human PC-3 cells assessed as cell growth inhibition incubated for 72 hrs by MTT assay; format: functional, cell-based; settings: PC-3, 72 h
[6] = molecular target: T1, Androgen receptor (Homo sapiens); experiment: Inhibition of androgen receptor in human LNCaP cells assessed as reduction in DHT-induced AR expression level at 1 to 5 uM incubated for 24 hrs by western blot analysis; format: cell-based; settings: dose 1-5 µM
[7] = tested on: CWR22R; experiment: Antiproliferative activity against human 22Rv1 cells assessed as cell growth inhibition incubated for 72 hrs by MTT assay; format: functional, cell-based; settings: 22Rv1, 72 h
[8] = molecular target: T1, Androgen receptor (Homo sapiens); experiment: Inhibition of androgen receptor in human LNCaP cells assessed as reduction in DHT-induced AR mRNA expression level at 1 to 5 uM incubated for 24 hrs by qRT-PCR analysis; format: cell-based; settings: dose 1-5 µM
[9] = molecular target: T1, Androgen receptor (Homo sapiens); experiment: Inhibition of androgen receptor in human 22Rv1 cells assessed as reduction in DHT-induced AR mRNA expression level at 1 to 5 uM incubated for 24 hrs by qRT-PCR analysis; format: cell-based; settings: dose 1-5 µM
[10] = molecular target: T1, Androgen receptor (Homo sapiens); experiment: Inhibition of androgen receptor in human LNCaP cells assessed as reduction in DHT-induced PSA mRNA expression level at 1 to 5 uM incubated for 24 hrs by qRT-PCR analysis; format: cell-based; settings: dose 1-5 µM
[11] = molecular target: T1, Androgen receptor (Homo sapiens); experiment: Inhibition of androgen receptor in human 22Rv1 cells assessed as reduction in DHT-induced PSA mRNA expression level at 1 to 5 uM incubated for 24 hrs by qRT-PCR analysis; format: cell-based; settings: dose 1-5 µM
[12] = molecular target: T1, Androgen receptor (Homo sapiens); experiment: Inhibition of androgen receptor in human 22Rv1 cells assessed as reduction in DHT-induced PSA level at 1 to 5 uM incubated for 24 hrs by western blot analysis; format: cell-based; settings: dose 1-5 µM
[13] = molecular target: T1, Androgen receptor (Homo sapiens); experiment: Inhibition of androgen receptor in human LNCaP cells assessed as reduction in DHT-induced PSA level at 1 to 5 uM incubated for 24 hrs by western blot analysis; format: cell-based; settings: dose 1-5 µM
[14] = molecular target: T1, Androgen receptor (Homo sapiens); experiment: Inhibition of androgen receptor in human 22Rv1 cells assessed as reduction in […] expression level at 1 to 10 uM incubated for 24 hrs by western blot analysis; format: cell-based; settings: dose 1-10 µM

Question: What does the source list for `CC1=CC2C(C(C)C)=C(O)C(=O)/C(=C\NCCS(=O)(=O)O)C2C(O)=C1c1c(C)cc2c(c1O)/C(=C/NCCS(=O)(=O)O)C(=O)C(O)=C2C(C)C` (centres undefined)?
Answer: inhibition [1]: Active; inhibition [2]: Active; IC50 [3]: 350 nM; inhibition [4]: Dose-Dependent Effect; IC50 [5]: 3160 nM; inhibition [6]: Dose-Dependent Effect; IC50 [7]: 910 nM; inhibition [8]: Dose-Dependent Effect; inhibition [9]: Dose-Dependent Effect; inhibition [10]: Dose-Dependent Effect; inhibition [11]: Dose-Dependent Effect; inhibition [12]: Active; inhibition [13]: Dose-Dependent Effect; inhibition [14]: Active
